Values joined by “and” are separate entries in the source; they are usually repeats but may differ in a detail not shown here. Equal entries are not always repeated. Structures can show the parent of a compound that is named as a salt. Active and inactive are the calls of the source.
What was measured:
[1] = target: Intestinal-type alkaline phosphatase (Homo sapiens, UniProt P09923); assay: Dose Response confirmation of uHTS hits from a small molecule inhibitors of human intestinal alkaline phosphatase via a luminescent assay. [Related pubchem assays (depositor defined):AID2544, AID2574]; format: functional
[2] = target: T1, RNA-binding protein pos-1 (Caenorhabditis elegans, UniProt G5EF15); assay: inhibitors of POS-1/mex-3 RNA binding, dose response, biochemical, fluorescence polarization (AID 1964);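 note: purified POS-1 fused to maltose binding protein made in E. coli; potency of compounds blocking POS-1 binding to fluorescent RNA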
T1 sequence (G5EF15 whole entry): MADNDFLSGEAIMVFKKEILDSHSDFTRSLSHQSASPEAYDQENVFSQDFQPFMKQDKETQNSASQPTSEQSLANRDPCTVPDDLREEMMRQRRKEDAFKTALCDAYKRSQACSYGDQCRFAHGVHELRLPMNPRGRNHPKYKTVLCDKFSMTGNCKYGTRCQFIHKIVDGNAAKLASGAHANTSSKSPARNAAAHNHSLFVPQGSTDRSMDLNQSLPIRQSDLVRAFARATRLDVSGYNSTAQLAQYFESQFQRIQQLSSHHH

[3] = target: Polyadenylate-binding protein 1 (Homo sapiens, UniProt P11940); assay: PABP1 MLLE–PAM2 interaction inhibitors, dose response, miRNA deadenylation inhibitor project, biochemical, fluorescence polarization, Cy5-PAM2 peptide, secondary (AID 602260); format: functional; details: read-out: IC50_Mean
[4] = target: Mitogen-activated protein kinase 8 (Homo sapiens, UniProt P45983); format: functional;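 note: value comes from one member of a kinome-wide kinase profiling panel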
[5] = target: Protein kinase C gamma type (Homo sapiens, UniProt P05129); format: functional
[6] = target: Mitogen-activated protein kinase kinase kinase kinase 2 (Homo sapiens, UniProt Q12851); format: functional;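 note: measured as one member of a kinome-wide kinase panel, with MAP4K2 as the panel entry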
Sequence of Mitogen-activated protein kinase kinase kinase kinase 2 (Q12851 whole entry): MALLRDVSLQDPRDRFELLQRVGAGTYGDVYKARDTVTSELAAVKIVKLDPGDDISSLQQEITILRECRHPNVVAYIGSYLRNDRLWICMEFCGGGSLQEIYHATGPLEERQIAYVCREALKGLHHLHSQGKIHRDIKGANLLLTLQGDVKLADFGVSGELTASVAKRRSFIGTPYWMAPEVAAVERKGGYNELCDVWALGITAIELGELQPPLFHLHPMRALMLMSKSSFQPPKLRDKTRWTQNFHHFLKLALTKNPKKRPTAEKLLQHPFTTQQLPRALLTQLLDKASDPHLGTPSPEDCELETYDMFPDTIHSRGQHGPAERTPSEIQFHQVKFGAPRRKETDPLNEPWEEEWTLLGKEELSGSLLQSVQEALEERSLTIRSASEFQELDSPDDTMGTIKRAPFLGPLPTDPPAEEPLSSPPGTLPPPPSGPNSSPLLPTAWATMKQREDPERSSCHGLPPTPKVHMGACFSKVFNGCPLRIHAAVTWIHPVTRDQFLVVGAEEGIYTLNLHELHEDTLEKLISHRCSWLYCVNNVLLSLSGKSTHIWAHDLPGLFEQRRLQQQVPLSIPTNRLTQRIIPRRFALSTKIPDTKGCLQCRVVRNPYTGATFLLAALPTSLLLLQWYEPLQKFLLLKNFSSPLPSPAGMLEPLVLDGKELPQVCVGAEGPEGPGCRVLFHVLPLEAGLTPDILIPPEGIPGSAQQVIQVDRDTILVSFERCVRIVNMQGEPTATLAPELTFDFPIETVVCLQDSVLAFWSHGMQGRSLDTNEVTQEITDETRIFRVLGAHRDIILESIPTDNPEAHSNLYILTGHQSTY

Sequence of Polyadenylate-binding protein 1 (P11940 whole entry): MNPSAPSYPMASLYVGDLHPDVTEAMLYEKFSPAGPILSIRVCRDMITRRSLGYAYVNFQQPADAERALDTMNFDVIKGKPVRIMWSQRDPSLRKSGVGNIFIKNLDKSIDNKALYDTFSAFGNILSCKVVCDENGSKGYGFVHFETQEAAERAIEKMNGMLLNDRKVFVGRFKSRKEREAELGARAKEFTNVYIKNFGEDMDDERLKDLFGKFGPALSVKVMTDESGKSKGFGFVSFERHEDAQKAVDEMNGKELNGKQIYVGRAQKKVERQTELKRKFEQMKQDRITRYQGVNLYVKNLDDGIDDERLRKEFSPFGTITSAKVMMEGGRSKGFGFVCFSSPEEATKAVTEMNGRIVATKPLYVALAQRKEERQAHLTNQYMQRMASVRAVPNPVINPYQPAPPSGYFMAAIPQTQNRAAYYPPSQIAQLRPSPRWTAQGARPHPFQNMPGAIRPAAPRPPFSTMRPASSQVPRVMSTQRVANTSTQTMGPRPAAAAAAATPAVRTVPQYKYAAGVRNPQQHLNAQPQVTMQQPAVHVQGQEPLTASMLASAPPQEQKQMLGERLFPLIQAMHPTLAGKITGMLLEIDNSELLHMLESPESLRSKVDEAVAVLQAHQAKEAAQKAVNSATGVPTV
Sequence of Mitogen-activated protein kinase 8 (P45983 whole entry): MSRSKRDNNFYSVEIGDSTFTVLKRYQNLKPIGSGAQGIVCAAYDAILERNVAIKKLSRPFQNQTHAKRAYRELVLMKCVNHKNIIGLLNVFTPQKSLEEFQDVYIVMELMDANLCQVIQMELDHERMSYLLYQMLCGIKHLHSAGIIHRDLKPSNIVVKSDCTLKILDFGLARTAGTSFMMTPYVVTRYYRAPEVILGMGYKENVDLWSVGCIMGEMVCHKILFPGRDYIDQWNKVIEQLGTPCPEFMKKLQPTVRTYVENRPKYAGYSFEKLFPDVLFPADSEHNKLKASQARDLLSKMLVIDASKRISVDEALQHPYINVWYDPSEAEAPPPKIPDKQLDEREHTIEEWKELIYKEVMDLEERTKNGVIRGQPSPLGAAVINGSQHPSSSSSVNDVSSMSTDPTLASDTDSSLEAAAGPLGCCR
Sequence of Intestinal-type alkaline phosphatase (P09923 whole entry, the tested form may be a part): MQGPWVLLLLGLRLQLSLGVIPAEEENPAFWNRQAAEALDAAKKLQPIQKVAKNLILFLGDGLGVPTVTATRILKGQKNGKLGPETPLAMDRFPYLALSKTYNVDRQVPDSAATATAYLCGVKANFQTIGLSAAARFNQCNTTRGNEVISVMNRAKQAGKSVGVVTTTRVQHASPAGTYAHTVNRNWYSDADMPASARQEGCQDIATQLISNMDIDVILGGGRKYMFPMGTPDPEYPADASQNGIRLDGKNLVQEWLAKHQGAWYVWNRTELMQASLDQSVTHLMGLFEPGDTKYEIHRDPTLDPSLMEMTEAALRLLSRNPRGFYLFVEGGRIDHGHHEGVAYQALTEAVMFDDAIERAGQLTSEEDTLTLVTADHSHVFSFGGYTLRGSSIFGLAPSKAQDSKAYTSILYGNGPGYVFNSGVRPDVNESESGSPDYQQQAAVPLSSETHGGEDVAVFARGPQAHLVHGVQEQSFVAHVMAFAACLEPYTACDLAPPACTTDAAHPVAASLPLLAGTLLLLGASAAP

CCN1/C(=C\c2ccc3ccccc3[n+]2CC)Sc2cc(C)ccc21
IC50 [1]: 16.1 µM (inactive)

CC[C@@H](CO)NC(=O)[C@@H]1C=C2c3cccc4c3c(cn4C)C[C@H]2N(C)C1 [METHYSERGIDE MALEATE]
EC50 [2]: 10.3 µM (active) and 14.3 µM (active) | IC50 [3]: > 66 µM (inactive)

CN1CCN(c2nc(C3=C(c4c[nH]c5ccccc45)C(=O)NC3=O)c3ccccc3n2)CC1 [SOTRASTAURIN]
Ki [4]: > 3.98 µM (inactive) | Ki [5]: 0.0126 µM (active) | Ki [6]: > 5.01 µM (inactive)

Reference: ChEMBL document CHEMBL1201862, “PubChem BioAssay data set” (2004)
